Measurements as given in ChEMBL document CHEMBL3758094, “Thioxocoumarins Show an Alternative Carbonic Anhydrase Inhibition Mechanism Compared to Coumarins” (J Med Chem, 2016).

Assays:
Carbonic anhydrase 2 = Carbonic anhydrase 2 (Homo sapiens, UniProt P00918); experiment: Inhibition of human carbonic anhydrase 2 by Stopped-Flow CO2 Hydrase assay
Carbonic anhydrase 1 = Carbonic anhydrase 1 (Homo sapiens, UniProt P00915); experiment: Inhibition of human carbonic anhydrase 1 by Stopped-Flow CO2 Hydrase assay
Sequence of Carbonic anhydrase 1 (P00915 whole entry): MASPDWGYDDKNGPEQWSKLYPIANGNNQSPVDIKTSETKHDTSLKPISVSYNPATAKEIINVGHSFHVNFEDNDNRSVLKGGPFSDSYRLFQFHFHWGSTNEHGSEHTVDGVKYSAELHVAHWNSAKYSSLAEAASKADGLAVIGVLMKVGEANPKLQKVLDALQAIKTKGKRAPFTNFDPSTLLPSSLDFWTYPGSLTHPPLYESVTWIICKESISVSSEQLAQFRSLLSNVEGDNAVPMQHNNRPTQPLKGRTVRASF

Carbonic anhydrase 12 = Carbonic anhydrase 12 (Homo sapiens, UniProt O43570)
Sequence of Carbonic anhydrase 12 (O43570 whole entry): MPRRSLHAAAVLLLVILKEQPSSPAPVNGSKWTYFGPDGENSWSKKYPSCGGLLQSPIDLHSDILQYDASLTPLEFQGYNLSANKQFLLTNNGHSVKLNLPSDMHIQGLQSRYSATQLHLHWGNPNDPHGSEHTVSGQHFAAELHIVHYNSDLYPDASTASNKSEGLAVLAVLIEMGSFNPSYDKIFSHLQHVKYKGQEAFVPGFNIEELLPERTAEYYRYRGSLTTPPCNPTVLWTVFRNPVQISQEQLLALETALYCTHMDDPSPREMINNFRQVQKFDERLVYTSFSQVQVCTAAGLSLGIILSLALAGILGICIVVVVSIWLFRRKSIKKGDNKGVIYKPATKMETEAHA

Carbonic anhydrase 9 = Carbonic anhydrase 9 (Homo sapiens, UniProt Q16790)

| Compound | Ki (Carbonic anhydrase 2) | Ki (Carbonic anhydrase 1) | Ki (Carbonic anhydrase 12) | Ki (Carbonic anhydrase 9) |
| --- | --- | --- | --- | --- |
| Oc1ccc2ccc(=S)oc2c1 | > 100 µM | – | – | – |
| C=CCOc1ccc2oc(=O)ccc2c1 | > 100 µM | – | – | – |
| CC(C)(C)[Si](C)(C)Oc1ccc2oc(=O)ccc2c1 | > 100 µM | – | – | – |
| CC(C)(C)[Si](C)(C)Oc1ccc2oc(=S)ccc2c1 | > 100 µM | – | – | – |
| Oc1ccc2oc(=S)ccc2c1 | 285 µM | – | – | – |
| CC(C)(C)[Si](C)(C)Oc1ccc2ccc(=O)oc2c1 | > 100 µM | – | – | – |
| CC(C)(C)[Si](C)(C)Oc1ccc2ccc(=S)oc2c1 | > 100 µM | – | – | – |
| C=CCOc1cc(=O)oc2ccccc12 | > 100 µM | – | – | – |
| C=CCOc1ccc2oc(=S)ccc2c1 | > 100 µM | – | – | – |
| C=CCOc1ccc2ccc(=S)oc2c1 | > 100 µM | – | – | – |
| C=CCOc1cc(=S)oc2ccccc12 | > 100 µM | – | – | – |
| C#CCOc1ccc2ccc(=O)oc2c1 | > 100 µM | 72 µM | – | – |
| C#CCCCOc1ccc2ccc(=O)oc2c1 | > 100 µM | 124 µM | 0.37 µM | 0.83 µM |
| O=c1ccc2ccc(OCc3cn(-c4ccccc4)nn3)cc2o1 | > 100 µM | > 200 µM | – | 0.008 µM |
| C#CCOc1ccc2ccc(=S)oc2c1 | > 100 µM | 950 µM | – | 41.6 µM |
| S=c1ccc2ccc(OCc3cn(-c4ccccc4)nn3)cc2o1 | > 100 µM | > 200 µM | – | 0.004 µM |
| S=c1ccc2ccccc2o1 | > 100 µM | > 100 µM | – | 6.7 µM |
| S=c1ccc2ccccc2s1 | > 100 µM | > 100 µM | – | – |
| C#CCCCOc1ccc2ccc(=S)oc2c1 | > 100 µM | > 200 µM | – | 0.22 µM |
| O=c1ccc2ccccc2s1 | > 100 µM | > 100 µM | – | – |
| O=c1cc(O)c2ccccc2o1 [4-HYDROXYCOUMARINS] | > 100 µM | 95 µM | 6.3 µM | 0.41 µM |
| O=c1ccc2cc(O)ccc2o1 [6-HYDROXYCOUMARIN] | > 100 µM | > 100 µM | 0.68 µM | 0.19 µM |
| C=CCOc1ccc2ccc(=O)oc2c1 [7-ALLYLOXYCOUMARIN] | > 100 µM | – | – | – |
